# “And” between values parts separate entries of the source, which are not always exact repeats. Equal entries are not always repeated. Where two headings read alike, the source gives them in different places.
# Tests used:
# EV71 [1] = type: cell-based, enterovirus 71; details: EV71 0.1 MOI, RD cells, 24 h; for Virus inhibition rate (%): CCK-8
# Experimental: • (1) 293T cells were plated in a 24-well cell plate. • (2) After the cells reached 70%-80% confluence, the MEM medium containing 10% serum was replaced with a MEM medium containing 2% serum (0.5 ml/well), and 5 μl of 10^6 PFU/mL EV71 virus per well was added. • (3) After 1 hour, polypeptides P2, 3A-TAT-EP, 3A-EP-DRI and 3A-EP-PEG-PA were added at a final concentration of 0.01 μM, 0.1 μM, 1 μM, and 10 μM, respectively. • (4) Samples were collected 24 hours after virus infection, and RNA was extracted with a total RNA extraction kit. • (5) The supernatant in each well was discarded, then 350 μl of TRK Lysis Buffer was added to the well and the plate was shaken on the shaker for 5 minutes. • (6) 350 μl of 70% ethanol (DEPC-treated) was added to the well and the plate was shaken on the shaker for 5 minutes. • (7) The mixture in the well was transferred to a RNA extraction column and centrifuged at 12000 g for 1 min. • (8) The solution collected in the recovery tube was added back to the column and centrifuged at 12,000 g for 1 min. • (9) RNA washing buffer 1 was added to the column and centrifuged at 12,000 g for 30 s. • (10) RNA washing buffer 2 was added to the column and centrifuged at 12,000 g for 1 min. • (11) Step (10) was repeated once. • (12) The empty column was centrifuged at 12,000 g for 2 min to completely remove residual RNA washing buffer. • (13) 50 μl DEPC-treated water was added to the column and centrifuge at 12000 g for 2 min. • (14) 2 μl RNA sample was used according to one step qRT-PCR kit for fluorescence quantification experiment. 3. […] Each concentration was tested in triplicate. • (3) The diluted virus solution was added to the plate of step (1), 100 μL per well with the final virus concentration was 0.1 MOI. Wells without polypeptide and virus (well without treatment), wells with virus only were used as controls. • (4) The mixture of step (2) was added to the 96-well plate plated with cells in step (1) and incubated in 5% CO2 at 37° C. for 24 h. Then CCK8 kit was used to determine the inhibitory effect of the polypeptide on virus. • (5) The inhibition rate of different concentrations of polypeptides on viral infection was calculated using the following formula: OD means the value of OD450-OD630, inhibition rate=(OD well with treatment−OD well with virus only)×100%/(OD well without treatment−OD well with virus only)
# • (1) RD cells in good growth state were plated in a 96-well plate. • (2) After the cells reached 70%-80% confluence, the MEM medium containing 10% serum was replaced with a MEM medium containing 2% serum. Group without polypeptide and virus, and group with virus but without polypeptide were included as controls. The final virus concentration was 0.1 MOI. • (3) 1 h later, polypeptide CR at a final concentration of 5 μM, 2.5 μM, 1.25 μM, 0.625 μM, 0.3125 μM, and 0.15625 μM was added, respectively. Group without polypeptide and virus, and group with virus but without polypeptide were set as controls. • (4) 24 hours after virus infection, when the change in the control group with only virus was obvious, 10 μl of viable cell detection agent CCK-8 was added to each well and mixed well. • (5) The plate was incubated at 37° C. for 2 h. • (6) The absorbance value at OD450 was measured with a microplate reader. Inhibition rate of polypeptide=(OD well with treatment−OD well with virus only)×100%/(OD well without treatment−OD well with virus only), OD refers to the value of OD450-OD630.
# • (1) RD cells in good growth state were plated in a 96-well plate. • (2) After the cells reached 70%-80% confluence, the MEM medium containing 10% serum was replaced with a MEM medium containing 2% serum. Group without polypeptide and virus, and group with virus but without polypeptide were included as controls. The final virus concentration was 0.1 MOI. • (3) 1 h later, polypeptide CR at a final concentration of 2.5 μM, 1.25 μM, 0.625 μM, 0.3125 μM, and 0.15625 μM was added, respectively. […]
# EV71 [2] = experiment: Antiviral activity against EV71 in mice, virus copies in hind limb muscle by qRT-PCR; type: in vivo, ICR suckling mice
# Text: (§1) • (1) 8 2-day-old ICR mice were randomly divided into two groups, 4 in each group.
# CVA16 = experiment: Antiviral activity against CVA16 in mice, virus copies in muscle by qRT-PCR; type: in vivo, ICR suckling mice; details: 10 mg/kg i.p. every 12 h for 5 days vs PBS
# Text: as §1
# 3. The Procedure for Detecting the Antiviral Activity of P1 Against CVA16 in Mice is Similar as the EV71 Experiment.
# 3. The Procedure for Detecting the Antiviral Activity of CR Against CVA16 in Mice is Similar to the EV71 Experiment.
smiles,measurement,setting,value
N=C(N)NCCC[C@H](NC(=O)[C@H](CS)NC(=O)CNC(=O)[C@H](CO)NC(=O)CNC(=O)[C@H](CCCNC(=N)N)NC(=O)[C@H](CCCNC(=N)N)NC(=O)[C@H](CCCNC(=N)N)NC(=O)[C@H](CCC(N)=O)NC(=O)[C@H](CCCNC(=N)N)NC(=O)[C@H](CCCNC(=N)N)NC(=O)[C@H](CCCCN)NC(=O)[C@H](CCCCN)NC(=O)[C@H](CCCNC(=N)N)NC(=O)CNC(=O)[C@@H](N)Cc1ccc(O)cc1)C(=O)O [CR],Virus inhibition rate (%),EV71 [1]; 0.15625 μM,−4.346% and −7.143% and −8.595%
same,Virus inhibition rate (%),EV71 [1]; 0.625 μM,16.42% and 7.119% and 16.77%
same,Virus inhibition rate (%),EV71 [1]; 1.25 μM,50.8% and 47.5% and 45.63%
same,Virus inhibition rate (%),EV71 [1]; 2.5 μM,78.26% and 70.5% and 64.43%
same,Virus inhibition rate (%),EV71 [1]; 5 μM,74.47% and 71.5% and 69.26%
same,IC50,EV71 [1]; read-out: IC50 against EV71 by CCK8 method,1.7 µM
same,"EV71 viral load in mice, in words",EV71 [2]; 10 mg/kg i.p. every 12 h for 5 days vs PBS,can significantly reduce the EV71 viral load in mice
same,Number of EV71 virus copy in muscle tissue (Copies/g),"EV71 [2]; 2-day-old ICR mice, EV71 i.p., 10 mg/kg polypeptide i.p. every 12 h for 5 days, individual animals, 10 mg/kg",1.88e+007 Copies/g and 1.122e+007 Copies/g and 1.738e+007 Copies/g and 9852432.0000 Copies/g
same,"CVA16 viral load in mice, in words",CVA16,can significantly reduce the viral load of CVA16 in mice
